In PMC3961306, “Comparison of the Cancer Gene Targeting and Biochemical Selectivities of All Targeted Kinase Inhibitors Approved for Clinical Use” (PLoS ONE, 2014):
Where two headings read alike, the source gives them in different places.

Tests used:
[1] = tested on: forty-four human cancer cell lines; assay: Cell proliferation assay (ATPlite, 72 hours) in the 44 cell line Oncolines panel; assay type: cell-based; conditions: Homo sapiens
[2] = biological target: panel of more than 300 wild-type and mutant kinases (313 kinase panel) (Homo sapiens, UniProt Q9HC98); assay: Kinase profiling in a biochemical assay panel (mobility shift assays and ELISA), %-inhibition at 1 μM; selectivity entropy; conditions: kinase NEK6; 1 μM
[3] = biological target: panel of more than 300 wild-type and mutant kinases (313 kinase panel) (Homo sapiens, UniProt P04049); assay: as above; conditions: kinase RAF1; 1 μM
[4] = biological target: panel of more than 300 wild-type and mutant kinases (313 kinase panel) (Homo sapiens, UniProt Q8N4C8); assay: as above; conditions: kinase MINK; 1 μM
[5] = biological target: panel of more than 300 wild-type and mutant kinases (313 kinase panel) (Homo sapiens, UniProt Q04912); assay: as above; conditions: kinase RON; 1 μM
[6] = biological target: panel of more than 300 wild-type and mutant kinases (313 kinase panel) (Homo sapiens, UniProt P22612); assay: as above; conditions: kinase PKACγ; 1 μM
[7] = biological target: panel of more than 300 wild-type and mutant kinases (313 kinase panel) (Homo sapiens, UniProt P10721, T670I); assay: as above; conditions: kinase KIT(T670I); compound at 1 μM
[8] = biological target: T1, panel of more than 300 wild-type and mutant kinases (313 kinase panel) (Homo sapiens, UniProt Q9UL54); assay: as above; conditions: kinase TAOK2; 1 μM
T1 sequence (Q9UL54 1-1235): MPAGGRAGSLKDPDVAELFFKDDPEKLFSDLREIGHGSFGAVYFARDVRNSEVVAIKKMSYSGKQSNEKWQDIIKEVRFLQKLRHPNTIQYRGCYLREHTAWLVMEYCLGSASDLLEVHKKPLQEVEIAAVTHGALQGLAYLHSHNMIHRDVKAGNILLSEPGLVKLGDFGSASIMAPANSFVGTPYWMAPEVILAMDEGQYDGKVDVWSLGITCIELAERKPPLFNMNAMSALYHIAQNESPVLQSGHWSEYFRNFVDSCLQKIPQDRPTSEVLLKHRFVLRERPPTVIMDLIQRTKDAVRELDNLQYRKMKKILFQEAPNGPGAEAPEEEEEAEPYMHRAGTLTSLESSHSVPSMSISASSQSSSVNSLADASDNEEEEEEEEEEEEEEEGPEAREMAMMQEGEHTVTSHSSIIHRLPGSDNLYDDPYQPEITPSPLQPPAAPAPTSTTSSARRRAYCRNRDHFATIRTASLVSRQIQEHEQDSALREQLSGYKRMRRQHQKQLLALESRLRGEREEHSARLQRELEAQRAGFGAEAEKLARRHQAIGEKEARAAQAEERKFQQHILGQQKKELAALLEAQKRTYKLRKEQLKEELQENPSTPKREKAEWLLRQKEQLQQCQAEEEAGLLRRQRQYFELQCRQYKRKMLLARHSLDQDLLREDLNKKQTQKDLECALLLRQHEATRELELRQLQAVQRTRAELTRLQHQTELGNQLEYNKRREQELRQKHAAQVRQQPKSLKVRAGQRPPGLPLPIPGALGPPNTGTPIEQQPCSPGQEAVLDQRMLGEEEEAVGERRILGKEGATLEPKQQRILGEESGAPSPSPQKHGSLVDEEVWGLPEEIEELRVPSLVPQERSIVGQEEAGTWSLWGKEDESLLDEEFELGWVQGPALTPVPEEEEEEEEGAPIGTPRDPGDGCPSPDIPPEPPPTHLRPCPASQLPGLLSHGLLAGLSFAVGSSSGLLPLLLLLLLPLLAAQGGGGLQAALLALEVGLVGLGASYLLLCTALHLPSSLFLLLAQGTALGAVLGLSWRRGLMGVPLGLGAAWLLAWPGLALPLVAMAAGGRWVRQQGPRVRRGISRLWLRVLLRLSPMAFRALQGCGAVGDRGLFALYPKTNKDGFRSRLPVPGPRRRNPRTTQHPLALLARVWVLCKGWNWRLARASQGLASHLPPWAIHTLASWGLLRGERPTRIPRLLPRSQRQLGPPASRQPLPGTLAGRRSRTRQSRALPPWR

panel of more than 300 wild-type and mutant kinases (313 kinase panel) (Homo sapiens, UniProt P04049), sequence (P04049 whole entry, change not shown): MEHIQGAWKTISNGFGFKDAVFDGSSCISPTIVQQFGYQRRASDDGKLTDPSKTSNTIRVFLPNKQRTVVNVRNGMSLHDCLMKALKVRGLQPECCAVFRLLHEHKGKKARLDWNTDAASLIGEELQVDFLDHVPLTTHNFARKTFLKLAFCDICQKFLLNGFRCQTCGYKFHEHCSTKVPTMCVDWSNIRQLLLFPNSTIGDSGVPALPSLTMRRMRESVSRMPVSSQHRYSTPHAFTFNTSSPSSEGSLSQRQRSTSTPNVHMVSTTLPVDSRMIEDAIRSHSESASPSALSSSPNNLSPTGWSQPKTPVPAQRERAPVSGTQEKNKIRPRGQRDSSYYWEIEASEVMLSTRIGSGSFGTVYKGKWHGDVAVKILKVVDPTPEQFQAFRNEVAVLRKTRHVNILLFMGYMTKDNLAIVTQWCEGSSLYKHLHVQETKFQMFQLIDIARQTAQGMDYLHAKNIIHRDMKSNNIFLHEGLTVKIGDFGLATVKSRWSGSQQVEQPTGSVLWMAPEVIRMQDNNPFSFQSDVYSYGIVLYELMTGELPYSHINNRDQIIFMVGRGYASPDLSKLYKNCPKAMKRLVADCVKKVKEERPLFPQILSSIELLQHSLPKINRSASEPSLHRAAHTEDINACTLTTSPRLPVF
panel of more than 300 wild-type and mutant kinases (313 kinase panel) (Homo sapiens, UniProt Q8N4C8), sequence (Q8N4C8 whole entry, change not shown): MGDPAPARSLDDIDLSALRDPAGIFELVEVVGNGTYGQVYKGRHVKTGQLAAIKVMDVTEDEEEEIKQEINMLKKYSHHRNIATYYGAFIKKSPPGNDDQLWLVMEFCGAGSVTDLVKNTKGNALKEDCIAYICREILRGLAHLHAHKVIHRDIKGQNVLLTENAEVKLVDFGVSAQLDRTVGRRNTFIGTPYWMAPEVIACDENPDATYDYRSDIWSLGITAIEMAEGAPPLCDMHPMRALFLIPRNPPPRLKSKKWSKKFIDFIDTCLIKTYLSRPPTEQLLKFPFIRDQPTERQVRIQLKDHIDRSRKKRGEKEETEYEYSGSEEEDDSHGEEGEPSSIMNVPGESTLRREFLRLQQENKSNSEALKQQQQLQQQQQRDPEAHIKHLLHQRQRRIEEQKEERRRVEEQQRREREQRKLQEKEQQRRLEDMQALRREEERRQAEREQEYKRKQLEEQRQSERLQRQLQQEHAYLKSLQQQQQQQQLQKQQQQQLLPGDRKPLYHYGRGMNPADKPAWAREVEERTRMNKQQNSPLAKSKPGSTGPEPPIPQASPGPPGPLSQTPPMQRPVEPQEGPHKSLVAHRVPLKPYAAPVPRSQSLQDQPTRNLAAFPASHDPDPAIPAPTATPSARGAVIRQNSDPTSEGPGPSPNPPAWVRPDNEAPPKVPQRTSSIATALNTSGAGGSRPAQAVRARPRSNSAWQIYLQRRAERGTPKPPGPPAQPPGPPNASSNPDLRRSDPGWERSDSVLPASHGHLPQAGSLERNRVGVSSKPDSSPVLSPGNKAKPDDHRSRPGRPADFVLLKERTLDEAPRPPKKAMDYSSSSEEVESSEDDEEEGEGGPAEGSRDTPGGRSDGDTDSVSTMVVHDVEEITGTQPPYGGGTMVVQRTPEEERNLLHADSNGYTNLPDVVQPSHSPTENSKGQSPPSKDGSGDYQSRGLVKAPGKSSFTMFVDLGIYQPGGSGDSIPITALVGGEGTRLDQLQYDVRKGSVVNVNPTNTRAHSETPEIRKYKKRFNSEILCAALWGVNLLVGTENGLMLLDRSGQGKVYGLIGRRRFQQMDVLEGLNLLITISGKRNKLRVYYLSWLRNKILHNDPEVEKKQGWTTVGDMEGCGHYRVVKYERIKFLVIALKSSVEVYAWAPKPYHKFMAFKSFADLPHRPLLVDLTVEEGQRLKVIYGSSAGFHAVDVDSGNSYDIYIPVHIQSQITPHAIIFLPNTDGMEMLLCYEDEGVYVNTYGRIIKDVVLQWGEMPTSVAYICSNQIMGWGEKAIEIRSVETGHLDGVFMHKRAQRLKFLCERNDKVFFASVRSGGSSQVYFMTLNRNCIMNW
panel of more than 300 wild-type and mutant kinases (313 kinase panel) (Homo sapiens, UniProt P10721, T670I), sequence (P10721 26-976 T670I): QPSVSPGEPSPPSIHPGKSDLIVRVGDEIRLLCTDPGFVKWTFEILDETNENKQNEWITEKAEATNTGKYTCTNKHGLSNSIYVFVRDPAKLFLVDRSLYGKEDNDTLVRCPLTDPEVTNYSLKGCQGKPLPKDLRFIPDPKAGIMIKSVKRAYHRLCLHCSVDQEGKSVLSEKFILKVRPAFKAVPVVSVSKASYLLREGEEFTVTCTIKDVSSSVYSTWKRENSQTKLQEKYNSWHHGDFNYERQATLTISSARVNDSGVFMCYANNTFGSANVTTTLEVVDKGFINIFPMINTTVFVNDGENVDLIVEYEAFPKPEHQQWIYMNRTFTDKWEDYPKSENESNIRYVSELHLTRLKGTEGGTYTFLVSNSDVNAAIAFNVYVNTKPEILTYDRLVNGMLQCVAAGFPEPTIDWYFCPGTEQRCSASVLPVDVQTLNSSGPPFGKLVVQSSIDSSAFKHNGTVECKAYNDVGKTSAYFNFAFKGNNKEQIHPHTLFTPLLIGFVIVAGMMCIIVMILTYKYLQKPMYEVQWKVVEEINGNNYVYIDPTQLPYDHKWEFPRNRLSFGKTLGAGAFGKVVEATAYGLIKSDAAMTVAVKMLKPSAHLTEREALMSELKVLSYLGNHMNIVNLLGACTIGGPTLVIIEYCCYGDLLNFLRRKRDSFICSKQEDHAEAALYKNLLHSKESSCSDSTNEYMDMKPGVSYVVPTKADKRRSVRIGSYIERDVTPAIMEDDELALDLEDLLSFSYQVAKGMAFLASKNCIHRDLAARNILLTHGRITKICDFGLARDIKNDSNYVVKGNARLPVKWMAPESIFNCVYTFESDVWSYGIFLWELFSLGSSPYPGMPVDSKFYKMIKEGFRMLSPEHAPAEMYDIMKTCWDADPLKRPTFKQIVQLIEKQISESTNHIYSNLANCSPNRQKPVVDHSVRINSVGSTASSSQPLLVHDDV

CC(=O)Nc1cccc(-n2c(=O)n(C3CC3)c(=O)c3c(Nc4ccc(I)cc4F)n(C)c(=O)c(C)c32)c1 [trametinib]
IC50 ([1]; A 172, read-out: cell panel IC50, A-172): 110 nM | IC50 ([1]; A204, cell line A-204, read-out: cell panel IC50, A-204): 631 nM | IC50 ([1]; A498, read-out: cell panel IC50, A-498): 22300 nM | IC50 ([1]; A549, read-out: cell panel IC50, A-549): 57 nM | IC50 ([1]; A-375, cell line A375, read-out: cell panel IC50, A375): 13 nM | IC50 ([1]; A-427, read-out: cell panel IC50, A-427): 17 nM | IC50 ([1]; AU565, read-out: cell panel IC50, AU-565): 19400 nM | IC50 ([1]; BT-549, read-out: cell panel IC50, BT-549): 17700 nM | IC50 ([1]; HCT-116, read-out: cell panel IC50, HCT-116): 35 nM | IC50 ([1]; K562, read-out: cell panel IC50, K-562): 37 nM | IC50 ([1]; LS174T, read-out: cell panel IC50, LS 174T): 37 nM | IC50 ([1]; SHP77, cell line SHP-77, read-out: cell panel IC50, SHP-77): > 31600 nM | IC50 ([1]; SW-620, cell line SW620, read-out: cell panel IC50, SW620): 1.35 nM | IC50 ([1]; U2OS, cell line U-2 OS, read-out: cell panel IC50, U-2 OS): 311 nM | IC50 ([1]; cell line J82, read-out: cell panel IC50, J82): > 31600 nM | IC50 ([1]; cell line PA-1, read-out: cell panel IC50, PA-1): 436 nM | IC50 ([1]; cell line SJCRH30, read-out: cell panel IC50, SJCRH30): 783 nM | IC50 ([1]; cell line SR, read-out: cell panel IC50, SR): 950 nM | IC50 ([1]; U-87 MG cell line, ATPlite, 72 hours, read-out: IC50 in cell proliferation assay (table S5 cellpanel data)): 229 nM | IC50 ([1]; cell line 769-P, read-out: cell panel IC50, 769-P): 85 nM | IC50 ([1]; cell line 786-0, read-out: cell panel IC50, 786-0): 25800 nM | IC50 ([1]; cell line ACHN, read-out: cell panel IC50, ACHN): 496 nM | IC50 ([1]; cell line AN3 CA, read-out: cell panel IC50, AN3 CA): 13600 nM | IC50 ([1]; cell line BT-20, read-out: cell panel IC50, BT-20): > 31600 nM | IC50 ([1]; cell line BxPC-3, read-out: cell panel IC50, BxPC-3): 29 nM | IC50 ([1]; cell line C-33 A, read-out: cell panel IC50, C-33 A): 8 nM | IC50 ([1]; cell line CAL 27, read-out: cell panel IC50, CAL 27): 58 nM | IC50 ([1]; cell line CCRF-CEM, read-out: cell panel IC50, CCRF-CEM): 28000 nM | IC50 ([1]; cell line DLD-1, read-out: cell panel IC50, DLD-1): 493 nM | IC50 ([1]; cell line FaDu, read-out: cell panel IC50, FaDu): 14 nM | IC50 ([1]; cell line HCT-15, read-out: cell panel IC50, HCT-15): 2040 nM | IC50 ([1]; cell line Hs 578T, read-out: cell panel IC50, Hs 578T): 371 nM | IC50 ([1]; cell line Jurkat E6.1, read-out: cell panel IC50, Jurkat E6.1): > 31600 nM | IC50 ([1]; cell line LoVo, read-out: cell panel IC50, LoVo): 8 nM | IC50 ([1]; cell line MG-63, read-out: cell panel IC50, MG-63): 119 nM | IC50 ([1]; cell line MOLT-4, read-out: cell panel IC50, MOLT-4): 19300 nM | IC50 ([1]; cell line MeWo, read-out: cell panel IC50, MeWo): 33 nM | IC50 ([1]; cell line NCI-H82, read-out: cell panel IC50, NCI-H82): 24700 nM | IC50 ([1]; cell line NCI-H460, read-out: cell panel IC50, NCI-H460): 14 nM | IC50 ([1]; cell line OVCAR-3, read-out: cell panel IC50, OVCAR-3): > 31600 nM | IC50 ([1]; cell line RPMI-7951, read-out: cell panel IC50, RPMI-7951): 10 nM | IC50 ([1]; cell line SK-N-AS, read-out: cell panel IC50, SK-N-AS): 9.52 nM | IC50 ([1]; cell line SW48, read-out: cell panel IC50, SW48): 1.2 nM | IC50 ([1]; cell line SW480, read-out: cell panel IC50, SW480): 574 nM | %-inhibition of NEK6 [2]: -0.324% | %-inhibition of RAF1 [3]: 61% | %-inhibition of MINK [4]: -1.8% | %-inhibition of RON [5]: -6.44% | %-inhibition of PKACγ [6]: 2% | %-inhibition of KIT(T670I) [7]: -3% | %-inhibition of TAOK2 [8]: -2.59%
